# Test results from US11376324B2, “Sting activating nanovaccine for immunotherapy” (The Board of Regents of the University of Texas System, priority 2016, dated 2022).
# Legend:
# [1] = Histology of major organs (H&E); type: in vivo, C57BL/6 mice; conditions: repeated injections, 10 μg OVA plus 150 μg
# Protocol: FIG. 14. Histology analyses of major organs for safety assessment of PC7A nanovaccine. Representative H&E sections of the main organs from C57BL/6 mice after repeated injections of 10 μg OVA plus 150 μg PC7A NP or the same dose of Poly(I:C). Mice were sacrificed 24 h after the second injection (n=5 for each group).
# IRF7 and CXCL10 = assay: q-RT-PCR of interferon-stimulated genes at injection site; type: in vivo, mice; conditions: local tissue after s.c. injection
# From the text: Samples were run in triplicate.
# B16-OVA tumor = assay: B16-OVA melanoma tumor therapy; type: in vivo, C57BL/6 mice; conditions: peptide 0.5 μg, s.c. day 5 and booster 5 days later
# Protocol: Six to eight week old mice (n=10 for each group) were injected subcutaneously with B16-OVA or B16F10 melanoma cells (1.5×10^5), or TC-1 cells (1.5×10^5), MC38 cells (5×10^5) into the right flank of mice. […] Or at day 3, 6, 9 and 12, some groups were i.p. injected with 200 μg checkpoint inhibitors (anti-mPD-1, BioXcell, BE0146) for comparison or synergy evaluation. The tumor growth was subsequently measured twice a week using a digital caliper and calculated as 0.5×length×width^2 by blinded investigators. Mice were killed when tumor […] reached 1500 mm^3, the end point of tumor detection is 2-fold of the longest survival time (LST) of control group, so around 40 days for melanoma tumor model, and around 60 days for TC-1 and MC38 tumor models.
Substance,"histology of major organs (liver, spleen, kidney, heart) [1]","IRF7 and CXCL10 expression, 2 to 8 h (IRF7 and CXCL10)",tumor growth inhibition / survival benefit (in words) (B16-OVA tumor)
Poly(I:C),ballooned hepatocytes indicative of steatohepatitis,higher response in IRF7 and CXCL10 expressions in the early time points from 2 to 8 h than PC7A NP,
SIINFEKLTEWTSSNVMEERKIKV [OVA257-280],,,did not offer any significant tumor growth inhibition or survival benefit over the PBS control
